US7312206B2, “Sterol derivatives, liposomes comprising sterol derivatives and method for loading liposomes with active substances” (Novosom AG, priority 2001, dated 2007)

What was measured:
[1] = Chelating of metal ions (zeta potential of liposomes); type: physicochemical; conditions: compound in the liposome membrane
Protocol: Liposomes are produced as in Example 4. 40 μl of these liposomes are suspended in 7 ml of buffer (10 mM potassium acetate, 10 mM HEPES, pH 4.2 or pH 7.5). Subsequently, the metal ions are added with the concentrations as indicated, and the zeta potential of the liposomes is measured.

HeLa cells = test: Cytotoxicity, MTT test; type: cell-based
Protocol: The toxic effect of the substances was investigated using the MTT test. To this end, HeLa cells were seeded at a density of 2×10^4 cells per cavity of a 96-well titer plate and cultured for two days. Liposomes of varying composition (see Table) were added to the cells at a concentration of 0.5 mM and incubated with these cells for 24 hours. Subsequently, the MTT test was performed.

| Molecule | chelating of metal ions by liposomes including the compound (in words) [1] | toxic effect in the MTT test (in words) (HeLa cells) |
| --- | --- | --- |
| Histaminylethaneamine-cholesterol hemisuccinate [His-Chol] | capable of chelating metal ions | lesser toxic effects |
| CCCCCCCC/C=C\CCCCCCCC(=O)OCC(C[N+](C)(C)C)OC(=O)CCCCCCC/C=C\CCCCCCCC (stereo not shown) [DOTAP] | – | significant cytotoxic effect |
| CC(C)CCC[C@@H](C)[C@H]1CC[C@H]2[C@@H]3CC=C4C[C@@H](OC(=O)NCCN(C)C)CC[C@]4(C)[C@H]3CC[C@]12C [DC-Chol, N,N-Dimethyl (2-aminoethyl) carbamoylcholesterol] | – | significant cytotoxic effect |
